Source: publication PMC10882719 (Frontiers in Neuroscience, 2024)
Like-named read-outs stand apart in the source and are kept apart here.

Experiments:
Assay type in all cases: cell-based
168 GPCRs [1] = molecular target: T1, 168 GPCRs (Homo sapiens, UniProt O43193); conditions: MLNR
T1 construct: host or cells: PathHunter cell lines

168 GPCRs [2] = molecular target: T2, 168 GPCRs (Homo sapiens, UniProt P30556)
T2 construct: host or cells: PathHunter cell lines
T2 sequence (P30556 1-359): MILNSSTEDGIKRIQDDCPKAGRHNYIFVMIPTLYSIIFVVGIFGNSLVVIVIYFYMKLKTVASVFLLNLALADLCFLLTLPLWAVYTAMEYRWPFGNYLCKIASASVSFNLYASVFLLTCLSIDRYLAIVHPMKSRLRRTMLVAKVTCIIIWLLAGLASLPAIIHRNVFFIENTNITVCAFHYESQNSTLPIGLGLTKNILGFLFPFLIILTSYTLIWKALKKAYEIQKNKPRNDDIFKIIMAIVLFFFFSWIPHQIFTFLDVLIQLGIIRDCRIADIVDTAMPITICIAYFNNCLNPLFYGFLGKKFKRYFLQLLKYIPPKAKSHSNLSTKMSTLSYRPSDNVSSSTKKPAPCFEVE

168 GPCRs [3] = molecular target: T3, 168 GPCRs (Homo sapiens, UniProt P43116); conditions: PTGER2
T3 construct: host or cells: PathHunter cell lines
T3 sequence (P43116 whole entry): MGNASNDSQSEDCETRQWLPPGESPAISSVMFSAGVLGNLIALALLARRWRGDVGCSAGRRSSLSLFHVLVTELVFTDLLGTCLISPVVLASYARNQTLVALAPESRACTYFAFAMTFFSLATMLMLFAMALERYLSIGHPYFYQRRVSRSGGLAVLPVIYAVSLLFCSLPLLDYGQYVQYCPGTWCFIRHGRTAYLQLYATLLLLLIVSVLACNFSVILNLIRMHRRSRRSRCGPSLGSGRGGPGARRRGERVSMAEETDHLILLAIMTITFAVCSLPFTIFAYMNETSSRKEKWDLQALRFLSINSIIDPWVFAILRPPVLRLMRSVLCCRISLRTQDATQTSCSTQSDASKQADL

168 GPCRs [4] = molecular target: T4, 168 GPCRs (Homo sapiens, UniProt P48039); conditions: MTNR1A
T4 construct: host or cells: PathHunter cell lines
T4 sequence (P48039 whole entry): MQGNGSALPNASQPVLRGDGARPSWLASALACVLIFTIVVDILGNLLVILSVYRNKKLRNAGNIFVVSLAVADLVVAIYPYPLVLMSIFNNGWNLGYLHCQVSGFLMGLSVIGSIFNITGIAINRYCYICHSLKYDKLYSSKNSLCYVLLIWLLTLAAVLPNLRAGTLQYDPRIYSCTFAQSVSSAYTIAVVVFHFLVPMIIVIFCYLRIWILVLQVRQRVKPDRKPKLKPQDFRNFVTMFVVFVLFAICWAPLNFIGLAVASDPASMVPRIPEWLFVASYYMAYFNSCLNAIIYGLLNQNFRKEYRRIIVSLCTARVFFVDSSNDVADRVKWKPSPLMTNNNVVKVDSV

168 GPCRs [5] = molecular target: T5, 168 GPCRs (Homo sapiens, UniProt P49146); conditions: NPY2R
T5 construct: host or cells: PathHunter cell lines
T5 sequence (P49146 1-381): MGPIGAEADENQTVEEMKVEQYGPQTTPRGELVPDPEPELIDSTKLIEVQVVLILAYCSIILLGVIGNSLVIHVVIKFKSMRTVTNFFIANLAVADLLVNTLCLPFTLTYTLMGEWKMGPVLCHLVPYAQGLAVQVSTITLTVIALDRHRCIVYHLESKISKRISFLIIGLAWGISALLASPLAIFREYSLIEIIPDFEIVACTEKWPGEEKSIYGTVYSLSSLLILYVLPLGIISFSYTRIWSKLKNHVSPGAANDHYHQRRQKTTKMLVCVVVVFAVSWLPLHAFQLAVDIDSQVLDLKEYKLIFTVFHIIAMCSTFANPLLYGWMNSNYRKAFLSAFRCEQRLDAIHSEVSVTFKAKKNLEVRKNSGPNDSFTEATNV

168 GPCRs [6] = molecular target: T6, 168 GPCRs (Homo sapiens, UniProt Q13324)
T6 construct: host or cells: PathHunter cell lines
T6 sequence (Q13324 1-411): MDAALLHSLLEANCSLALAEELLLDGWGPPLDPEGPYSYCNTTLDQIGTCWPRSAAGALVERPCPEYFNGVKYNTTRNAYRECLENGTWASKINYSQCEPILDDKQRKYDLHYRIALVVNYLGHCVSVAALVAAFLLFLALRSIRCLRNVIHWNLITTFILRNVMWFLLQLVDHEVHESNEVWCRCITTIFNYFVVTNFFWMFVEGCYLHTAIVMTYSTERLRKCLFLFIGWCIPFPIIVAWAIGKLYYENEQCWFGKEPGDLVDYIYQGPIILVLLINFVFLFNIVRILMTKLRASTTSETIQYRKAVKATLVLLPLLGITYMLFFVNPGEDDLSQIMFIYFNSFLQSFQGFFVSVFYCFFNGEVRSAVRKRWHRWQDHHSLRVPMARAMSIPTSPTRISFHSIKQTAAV

168 GPCRs [7] = molecular target: T7, 168 GPCRs (Homo sapiens, UniProt Q8NFJ6); conditions: PROKR2
T7 construct: host or cells: PathHunter cell lines
T7 sequence (Q8NFJ6 whole entry): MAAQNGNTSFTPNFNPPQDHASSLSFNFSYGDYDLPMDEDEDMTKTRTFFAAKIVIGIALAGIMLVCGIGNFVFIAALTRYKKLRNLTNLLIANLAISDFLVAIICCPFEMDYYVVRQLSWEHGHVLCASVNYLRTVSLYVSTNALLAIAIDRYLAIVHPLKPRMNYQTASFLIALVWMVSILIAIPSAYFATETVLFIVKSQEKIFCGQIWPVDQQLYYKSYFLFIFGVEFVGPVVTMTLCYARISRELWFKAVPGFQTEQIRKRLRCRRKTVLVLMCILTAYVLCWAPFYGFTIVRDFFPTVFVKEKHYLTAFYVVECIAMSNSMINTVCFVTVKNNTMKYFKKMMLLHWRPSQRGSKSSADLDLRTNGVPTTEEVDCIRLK

168 GPCRs [8] = molecular target: T8, 168 GPCRs (Homo sapiens, UniProt Q96P65)
T8 construct: host or cells: PathHunter cell lines
T8 sequence (Q96P65 1-431): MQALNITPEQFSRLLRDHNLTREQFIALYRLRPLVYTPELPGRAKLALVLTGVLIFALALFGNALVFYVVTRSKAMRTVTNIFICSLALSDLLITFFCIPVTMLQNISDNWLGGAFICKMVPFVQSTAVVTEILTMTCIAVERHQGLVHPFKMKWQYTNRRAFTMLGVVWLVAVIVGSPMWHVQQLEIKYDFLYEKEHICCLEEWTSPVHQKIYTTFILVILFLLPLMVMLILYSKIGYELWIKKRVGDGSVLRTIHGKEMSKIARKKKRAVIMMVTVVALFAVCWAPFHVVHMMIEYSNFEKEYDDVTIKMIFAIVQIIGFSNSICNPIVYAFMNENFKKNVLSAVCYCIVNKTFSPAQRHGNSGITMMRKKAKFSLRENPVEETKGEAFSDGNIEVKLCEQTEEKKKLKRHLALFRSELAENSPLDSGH

T1 sequence (O43193 whole entry): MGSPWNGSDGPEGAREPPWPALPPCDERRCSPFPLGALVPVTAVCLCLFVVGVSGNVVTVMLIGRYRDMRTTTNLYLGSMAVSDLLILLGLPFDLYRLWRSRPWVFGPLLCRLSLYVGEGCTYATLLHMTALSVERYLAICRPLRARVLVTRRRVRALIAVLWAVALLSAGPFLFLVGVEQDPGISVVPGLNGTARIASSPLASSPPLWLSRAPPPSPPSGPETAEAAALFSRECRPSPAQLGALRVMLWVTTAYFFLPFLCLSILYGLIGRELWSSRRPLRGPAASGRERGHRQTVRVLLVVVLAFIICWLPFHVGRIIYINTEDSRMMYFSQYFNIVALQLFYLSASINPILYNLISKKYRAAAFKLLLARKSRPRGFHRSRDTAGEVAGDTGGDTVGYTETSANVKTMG

SMILES	% Agonist Activity (168 GPCRs [1]; 1 uM) [%]	% Antagonist Activity (168 GPCRs [1]; 1 uM) [%]	% Agonist Activity (168 GPCRs [1]; 10 uM) [%]	% Antagonist Activity (168 GPCRs [1]; 10 uM) [%]	% Agonist Activity (168 GPCRs [2]; AGTR1, 1 uM) [%]	% Antagonist Activity (168 GPCRs [2]; AGTR1, 1 uM) [%]	% Agonist Activity (168 GPCRs [2]; AGTR1, 10 uM) [%]	% Antagonist Activity (168 GPCRs [2]; AGTR1, 10 uM) [%]	% Agonist Activity (168 GPCRs [3]; Conc 1 uM) [%]	% Antagonist Activity (168 GPCRs [3]; Conc 1 uM) [%]	% Agonist Activity (168 GPCRs [3]; Conc 10 uM) [%]	% Antagonist Activity (168 GPCRs [3]; Conc 10 uM) [%]	% Agonist Activity (168 GPCRs [4]; 1 uM) [%]	% Antagonist Activity (168 GPCRs [4]; 1 uM) [%]	% Agonist Activity (168 GPCRs [4]; 10 uM) [%]	% Antagonist Activity (168 GPCRs [4]; 10 uM) [%]	% Agonist Activity (168 GPCRs [5]; Conc 1 uM) [%]	% Antagonist Activity (168 GPCRs [5]; Conc 1 uM) [%]	% Agonist Activity (168 GPCRs [5]; Conc 10 uM) [%]	% Antagonist Activity (168 GPCRs [5]; Conc 10 uM) [%]	further results
CNC(C)C(=O)c1ccc2c(c1)OCO2 (stereo not shown) [methylone]	-1.5	15.6	-1	12.3	-2.8	3.3	-1	-1.4	-1.4	12.7	-3.1	-4.4	-12.3	30.8	-11.7	7.8	-0.1	2.3	0.2	2	% Agonist Activity (168 GPCRs [6]; CRHR2, 1 uM): 0.9%; % Antagonist Activity (168 GPCRs [6]; CRHR2, 1 uM): -2%; % Agonist Activity (168 GPCRs [6]; CRHR2, 10 uM): 0.9%; % Antagonist Activity (168 GPCRs [6]; CRHR2, 10 uM): -0.3%; % Agonist Activity (168 GPCRs [7]; Conc 1 uM): -0.6%; % Antagonist Activity (168 GPCRs [7]; Conc 1 uM): 2%; % Agonist Activity (168 GPCRs [7]; Conc 10 uM): -0.6%; % Antagonist Activity (168 GPCRs [7]; Conc 10 uM): -6.8%; % Agonist Activity (168 GPCRs [8]; GPR103, 1 uM): 0.8%; % Antagonist Activity (168 GPCRs [8]; GPR103, 1 uM): 4.1%; % Agonist Activity (168 GPCRs [8]; GPR103, 10 uM): 3.1%; % Antagonist Activity (168 GPCRs [8]; GPR103, 10 uM): 7%
CNC(C)Cc1ccc2c(c1)OCO2 (stereo not shown) [MDMA, 3,4-Methylenedioxy methamphetamine, reference compound]	-0.3	6.2	-0.1	16.3	3.5	-17.7	3.2	-14.5	0.7	-9.8	1.1	-12.8	-9.2	18.4	-9.6	17.7	-0.1	12	0.2	4.8	% Agonist Activity (168 GPCRs [6]; CRHR2, 1 uM): -0.2%; % Antagonist Activity (168 GPCRs [6]; CRHR2, 1 uM): 4.3%; % Agonist Activity (168 GPCRs [6]; CRHR2, 10 uM): -0.1%; % Antagonist Activity (168 GPCRs [6]; CRHR2, 10 uM): 5.7%; % Agonist Activity (168 GPCRs [7]; Conc 1 uM): -0.6%; % Antagonist Activity (168 GPCRs [7]; Conc 1 uM): 14.4%; % Agonist Activity (168 GPCRs [7]; Conc 10 uM): -0.3%; % Antagonist Activity (168 GPCRs [7]; Conc 10 uM): 19.4%; % Agonist Activity (168 GPCRs [8]; GPR103, 1 uM): -4.2%; % Antagonist Activity (168 GPCRs [8]; GPR103, 1 uM): -15.2%; % Agonist Activity (168 GPCRs [8]; GPR103, 10 uM): -6.5%; % Antagonist Activity (168 GPCRs [8]; GPR103, 10 uM): -17.1%
